Measured values taken from patent publication US6197753A, “Pyranoside derivatives” (Boehringer Ingelheim KG, priority 1999, dated 2001).
pKi: −log10 of the molar value.

Target: LTB4 -receptor (Homo sapiens, UniProt Q15722)
Experiment: receptor binding test
Method: The compounds according to the invention are potent LTB4 -antagonists.In particular the compound of Example 1 is obtained in vivo as a metabolite of an LTB4 -antagonistic compound and in the receptor binding test it has a Ki -value of 1.0 nM.
The activity ratios may be investigated pharmacologically and biochemically using tests such as those described in WO 93/16036, pp. 15 to 17 --the contents of which are referred to herein.

Sequence of LTB4 -receptor (Q15722 whole entry): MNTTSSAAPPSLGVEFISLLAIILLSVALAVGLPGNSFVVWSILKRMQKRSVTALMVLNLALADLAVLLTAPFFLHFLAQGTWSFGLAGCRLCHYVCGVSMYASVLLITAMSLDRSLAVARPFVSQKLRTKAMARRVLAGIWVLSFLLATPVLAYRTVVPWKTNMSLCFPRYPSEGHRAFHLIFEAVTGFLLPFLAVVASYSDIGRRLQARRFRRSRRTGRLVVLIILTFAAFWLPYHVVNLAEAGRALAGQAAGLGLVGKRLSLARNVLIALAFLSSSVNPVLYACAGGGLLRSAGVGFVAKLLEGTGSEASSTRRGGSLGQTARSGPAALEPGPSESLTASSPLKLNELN

SMILES: CC(C)(c1ccc(OCc2cccc(COc3ccc(C(=N)N)cc3)c2)cc1)c1ccc(O[C@@H]2O[C@H](C(=O)O)[C@@H](O)[C@H](O)[C@H]2O)cc1 [Example 1, 4-[[3-[[4-[1-(4-hydroxyphenyl)-1-methylethyl]phenoxy]methyl]phenyl]methoxy]-benzenecarboximidamide-O-gluctironide]
- pKi: 9.00
